One block for each compound: values may come before it.
Assays:
[1] = system: RAW264.7; assay: Antiinflammatory activity in mouse RAW264.7 cells assessed as inhibition of LPS-induced nitric oxide production by measuring nitrite accumulation by Griess method; format: functional, cell-based
[2] = system: RAW264.7; assay: Cytotoxicity in LPS-stimulated mouse RAW264.7 cells at =>10 uM by MTT assay; format: cell-based
[3] = system: RAW264.7; assay: Antiinflammatory activity in mouse RAW264.7 cells assessed as inhibition of LPS-induced iNOS mRNA expression after 20 hrs by RT-PCR method; format: functional, cell-based
[4] = system: RAW264.7; assay: Antiinflammatory activity in mouse RAW264.7 cells assessed as inhibition of LPS-induced COX2 mRNA expression after 20 hrs by RT-PCR method; format: functional, cell-based
[5] = system: RAW264.7; assay: Cytotoxicity in LPS-stimulated mouse RAW264.7 cells at =>100 uM by MTT assay; format: cell-based

SMILES: CO[C@@H]1C[C@H](O[C@H]2CC[C@@]3(C)C(=CC[C@@H]4[C@@H]3C(=O)O[C@@]43CC[C@H]4[C@H](C)OC(=O)[C@]43C)C2)O[C@H](C)[C@@H]1OC(C)=O
IC50 ([1]; read-out: IC50): 60.4 µM

SMILES: COC(=O)[C@H]1[C@@H](C(=O)CC[C@H]2[C@H](C)OC(=O)[C@@H]2C)CC=C2C[C@@H](O[C@H]3C[C@@H](OC)[C@@H](OC(C)=O)[C@@H](C)O3)CC[C@@]21C
IC50 ([1]; read-out: IC50): 31.6 µM

SMILES: CO[C@@H]1C[C@H](O[C@H]2CC[C@@]3(C)C(=CC[C@]4(O)[C@@H]3C(=O)[C@@H]3O[C@H](C)[C@@H]5CC[C@@]4(O)[C@]35C)C2)O[C@H](C)[C@@H]1O
IC50 ([1]; read-out: IC50): 62.5 µM

SMILES: N=C(NCCC[C@H](N)C(=O)O)N[N+](=O)[O-] [NITROARGININE]
IC50 ([1]; read-out: IC50): 37.7 µM

SMILES: CO[C@@H]1C[C@H](O[C@H]2CC[C@@]3(C)C(=CC[C@@H]4[C@@H]3C(=O)O[C@@]43CC[C@H]4[C@H](C)OC(=O)[C@]43C)C2)O[C@H](C)[C@@H]1O
IC50 ([1]; read-out: IC50): 93.8 µM

SMILES: CO[C@@H]1C[C@H](O[C@H]2CC[C@@]3(C)C(=CC[C@@H]4[C@@H]3C(=O)[C@@H]3O[C@H](C)[C@@H]5CC[C@@]4(O)[C@]35C)C2)O[C@H](C)[C@@H]1OC(C)=O
IC50 ([1]; read-out: IC50): 91.2 µM

SMILES: COC(=O)[C@H]1[C@@H](C(=O)CC[C@H]2[C@H](C)OC(=O)[C@H]2C)CC=C2C[C@@H](O[C@H]3C[C@@H](OC)[C@@H](OC(C)=O)[C@@H](C)O3)CC[C@@]21C
IC50 ([1]; read-out: IC50): 12.6 µM
Activity [3]: Dose-dependent effect
Activity [4]: Dose-dependent effect
Activity [5]: Toxic

SMILES: CO[C@@H]1C[C@H](O[C@H]2CC[C@@]3(C)C(=CC[C@@H]4[C@@H]3C(=O)[C@@H]3O[C@H](C)[C@@H]5CC[C@@]4(O)[C@]35C)C2)O[C@H](C)[C@@H]1O
IC50 ([1]; read-out: IC50): 96.5 µM
Activity [5]: Toxic

SMILES: COc1ccc2c(c1)c(CC(=O)O)c(C)n2C(=O)c1ccc(Cl)cc1 [INDOMETHACIN]
IC50 ([1]; read-out: IC50): 46.5 µM

SMILES: CO[C@@H]1C[C@H](O[C@H]2CC[C@@]3(C)C(=CC[C@@H]4[C@@H]3C(=O)[C@@H]3O[C@H](C)[C@@H]5CC[C@@]4(O)[C@]35C)C2)O[C@H](C)[C@@H]1O[C@@H]1O[C@H](CO)[C@@H](O)[C@H](O)[C@H]1O
IC50 ([1]; read-out: IC50): > 100 µM

Now from value to compound, other results behind:

IC50 ([1]; read-out: IC50): 54.5 µM
SMILES: CC(C)Cc1ccc(C(C)C(=O)O)cc1 (stereo not drawn) [IBUPROFEN]

IC50 ([1]; read-out: IC50): 87.3 µM
SMILES: COC(=O)[C@H]1[C@@H](C(=O)CC[C@H]2[C@H](C)OC(=O)[C@@H]2C)CC=C2C[C@@H](O[C@H]3C[C@@H](OC)[C@@H](O)[C@@H](C)O3)CC[C@@]21C
Activity [2]: Toxic

IC50 ([1]; read-out: IC50): 66.1 µM
SMILES: COC(=O)[C@H]1[C@@H](C(=O)CC[C@H]2[C@H](C)OC(=O)[C@H]2C)CC=C2C[C@@H](O[C@H]3C[C@@H](OC)[C@@H](O)[C@@H](C)O3)CC[C@@]21C

IC50 [1]: 43.2 µM
SMILES: CC(=O)Oc1ccccc1C(=O)O [ASPIRIN]

IC50 ([1]; read-out: IC50): 9.3 µM
SMILES: O=C(/C=C/c1ccc(O)c(O)c1)OCCc1ccccc1 [CAFFEIC ACID PHENETHYL ESTER]

IC50 ([1]; read-out: IC50): > 100 µM
SMILES: CO[C@@H]1C[C@H](O[C@H]2CC[C@@]3(C)C(=CC[C@]4(O)[C@@H]3C(=O)[C@@H]3OC(C)[C@@H]5CC[C@@]4(O)[C@]35C)C2)O[C@H](C)[C@@H]1O[C@@H]1O[C@H](CO)[C@@H](O)[C@H](O)[C@H]1O (stereo partly drawn)

IC50 ([1]; read-out: IC50): 87.8 µM
SMILES: CO[C@@H]1C[C@H](O[C@H]2CC[C@@]3(C)C(=CC[C@]4(O)[C@@H]3C(=O)[C@@H]3O[C@H](C)[C@@H]5CC[C@@]4(O)[C@]35C)C2)O[C@H](C)[C@@H]1OC(C)=O

IC50 ([1]; read-out: IC50): 84 µM
SMILES: CO[C@@H]1C[C@H](O[C@H]2CC[C@@]3(C)C(=CC[C@@H]4[C@@H]3C(=O)[C@]3(O)O[C@H](C)[C@@H]5CC[C@@]4(O)[C@@]53C)C2)O[C@H](C)[C@@H]1O

Reference: ChEMBL document CHEMBL4190201, “Anti-inflammatory 12,20-Epoxypregnane and 11,12-seco-Pregnane Glycosides from the Stems of Hoya kerrii” (J Nat Prod, 2017)
